Data reported in patent US11884627B2, “Compounds and compositions for treating conditions associated with LPA receptor activity” (Lhotse Bio, Inc., priority 2022, dated 2024).

Tests used:
human LPA1 [1] = biological target: T1, human LPA1 (Homo sapiens, UniProt Q92633); assay: In vitro LPA1 functional antagonist assay (calcium mobilization, FLIPR); assay type: cell-based; details: CHO-K1 cells overexpressing human LPA1, Oleoyl LPA challenge at EC80
T1 construct: expressed in transfected cells; host or cells: CHO-K1
Method: In Vitro LPA1 Functional Antagonist Assay
CHO-K1 cells overexpressing human LPA1 were seeded in a total volume of 20 μL into black-walled, clear-bottom. Poly-D-lysine coated 384-well microplates and incubated at 37° C., for the appropriate time prior to testing. Assays were performed in 1× Dye Loading Buffer consisting of 1× Dye, 1× Additive A and 2.5 mM Probenecid in HBSS/20 mM Hepes. Probenicid was prepared fresh. Cells were loaded with dye prior to testing. Media was aspirated from cells and replaced with 20 μL Dye Loading Buffer. Cells were incubated for 30-60 minutes at 37° C. After dye loading, cells were removed from the incubator and 10 μL 3× test compound was added. Cells were incubated for 30 minutes at room temperature in the dark to equilibrate plate temperature followed by Oleoyl LPA challenge at EC80. Compound antagonist activity was measured on a FLIPR Tetra (MSD). Calcium mobilization was monitored for 2 minutes and 10 μL Oleoyl LPA in HBSS/20 mM Hepes was added to the cells 5 seconds into the assay. For LPA EC80 determination, after dye loading, cells were removed from the incubator and 10 μL HBSS/20 mM Hepes was added. 3× vehicle was included in the buffer. Cells were incubated for 30 minutes at room temperature in the dark to equilibrate plate temperature. Intermediate dilution of LPA stocks was performed to generate 4×LPA samples in assay buffer. LPA agonist activity was measured on a FLIPR Tetra (MSD). Calcium mobilization was monitored for 2 minutes and 10 μL 4×LPA sample in HBSS/20 mM Hepes was added to the cells 5 seconds into the assay. Compound activity was analyzed using CBIS data analysis suite (ChemInnovation, CA). Percentage inhibition is calculated using the following formula: % Inhibition=100%×(1−(mean RFU of test sample−mean RFU of vehicle control)/(mean RFU of LPA control−mean RFU of vehicle control)).
Table B1 and Table B2 show the biological activity of compounds in in vitro LPA1 functional antagonist assay. Activity of the tested compounds provided in Table B1 is as follows: +++=IC50<1 μM; ++=IC50 1 μM−10 μM; +=IC50>10 μM.

human LPA1 [2] = biological target: T1, human LPA1; assay: In vitro LPA1 calcium flux antagonist assay - Bioduro protocol; assay type: cell-based; details: CHO-K1 cells overexpressing human LPA1 and G15a, LPA challenge at EC80
Method in brief: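 CHO-K1 cells overexpressing human LPA1 and G15a, serum-starved 4 h, loaded with Fluo-8 AM plus 2.5 mM probenecid in HBSS/20 mM Hepes for 30 min at 37 °C. Compound preincubated 30 min, then LPA challenge at EC80; FLIPR calcium signal, % inhibition relative to DMSO and LPA controls.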

[3] = calcium mobilization on FLIPR Tetra, read-out: IC50
[4] = Table B3, read-out: Activity (IC50 class)
[5] = Table B1, read-out: Activity (IC50 class)

T1 sequence (Q92633 whole entry): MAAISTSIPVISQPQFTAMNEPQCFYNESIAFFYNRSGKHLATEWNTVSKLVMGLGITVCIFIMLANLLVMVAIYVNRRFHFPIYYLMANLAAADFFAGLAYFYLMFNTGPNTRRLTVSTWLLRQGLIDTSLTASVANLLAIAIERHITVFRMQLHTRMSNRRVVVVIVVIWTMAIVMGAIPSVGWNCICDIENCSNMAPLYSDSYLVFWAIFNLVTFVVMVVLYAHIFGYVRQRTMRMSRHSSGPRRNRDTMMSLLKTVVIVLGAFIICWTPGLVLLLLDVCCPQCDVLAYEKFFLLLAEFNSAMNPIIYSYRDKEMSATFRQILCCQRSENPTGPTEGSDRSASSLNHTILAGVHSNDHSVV

Row | SMILES | IC50 (human LPA1 [1]; Table B2, read-out: IC50) [µM] | IC50 (human LPA1 [2]; [3]) [µM] | IC50 (human LPA1 [2]; [4]) [µM] | IC50 (human LPA1 [1]; [5]) [µM]
1 | COc1cc(OC)cc(-c2ccc(NCCC(=O)O)cc2COC2Cc3ccccc3C2)c1 [Compound 103] | 1.54 |  |  | 1 to 10
2 | COc1cc(-c2ccc(NC3(C(=O)O)CCOCC3)cc2CCC2CCOC2)cc(OC)c1C (single isomer, unassigned) [Compound 185, 4-((3′,5′-dimethoxy-4′-methyl-2-(2-(tetrahydrofuran-3-yl)ethyl)-[1,1′-biphenyl]-4-yl)amino)tetrahydro-2H-pyran-4-carboxylic acid] | 0.00954 | 0.0126 | < 0.1 | 
3 | COc1cc(-c2ccc(OCCC(=O)O)cc2COC2Cc3ccccc3C2)cc(OC)c1C [Compound 105, 3-((2-(((2,3-dihydro-1H-inden-2-yl)oxy)methyl)-3′,5′-dimethoxy-4′-methyl-[1,1′-biphenyl]-4-yl)oxy)propanoic acid] | 0.0136 | 0.245 | 0.1 to 1 | < 1
4 | COc1cc(OC)cc(-c2ccc(OCCC(=O)O)cc2COC2Cc3ccccc3C2)c1 [Compound 104] | 0.162 | 0.628 | 0.1 to 1 | < 1
5 | COc1cc(-c2ccc(NCCC(=O)O)cc2COCc2ccccc2)ccc1C(F)F [Compound 102] | 2.49 |  |  | 1 to 10
6 | COc1cc(-c2ccc(NC3(C(=O)O)CC3)cc2COC2Cc3ccccc3C2)cc(OC)c1C [Compound 109, 1-((2-(((2,3-dihydro-1H-inden-2-yl)oxy)methyl)-3′,5′-dimethoxy-4′-methyl-[1,1′-biphenyl]-4-yl)amino)cyclopropane-1-carboxylic acid] | 0.00268 | 0.0941 | < 0.1 | < 1
7 | COc1cc(-c2ccc(NC3(C(=O)O)CCOCC3)cc2COC2Cc3ccccc3C2)cc(OC)c1C(C)=O [Compound 123] |  | 0.0148 | < 0.1 | 
8 | COc1cc(-c2ccc(NCCC(=O)O)cc2COC2Cc3ccccc3C2)cc(OC)c1C [Compound 101, 3-((2-(((2,3-dihydro-1H-inden-2-yl)oxy)methyl)-3′,5′-dimethoxy-4′-methyl-[1,1′-biphenyl]-4-yl)amino)propanoic acid] | 0.0272 | 0.34 | 0.1 to 1 | < 1
9 | COc1cc(OC)cc(-c2ccc(NC3(C(=O)O)CCOCC3)cc2CO[C@H]2CCC[C@H]2NC(C)=O)c1 [Compound 169] |  | > 10 | > 1 | 
10 | COc1cc(-c2ccc(NC3(C(=O)O)CN(C(C)=O)C3)cc2COC2Cc3ccccc3C2)cc(OC)c1C [Compound 128] |  | 0.0314 | < 0.1 | 
11 | COc1cc(-c2ccc(NC3(C(=O)O)CCOCC3)c(F)c2COC2CCCC2)c(F)c(OC)c1C [Compound 227] |  | 0.025 | < 0.1 | 
12 | CCOc1cncc(-c2ccc(NC3(C(=O)O)CCOCC3)cc2COCCC(C)C)c1C(F)F [Compound 413, 4-({4-[4-(difluoromethyl)-5-ethoxypyridin-3-yl]-3-[(3-methylbutoxy)methyl]phenyl}amino) oxane-4-carboxylic acid] |  | 0.00579 | < 0.1 | 
13 | CCOc1cccc(-c2ccc(NC3(C(=O)O)CCOCC3)cc2COC2CCCC2)c1C [Compound 229, 4-((2-((cyclopentyloxy)methyl)-3′-ethoxy-2′-methyl-[1,1′-biphenyl]-4-yl)amino)tetrahydro-2H-pyran-4-carboxylic acid] |  | 0.00528 | < 0.1 | 
14 | COCC1CC(Nc2ccc(-c3cc(OC)c(C)c(OC)c3)c(COC3Cc4ccccc4C3)c2)(C(=O)O)C1 (stereo not drawn) [Compound 143] |  | 0.0538 | < 0.1 | 
15 | COC(=O)N1CC(Nc2ccc(-c3cc(OC)c(C)c(OC)c3)c(COC3Cc4ccccc4C3)c2)(C(=O)O)C1 [Compound 129] |  | 0.0172 | < 0.1 | 

Next, values leading:

Row | IC50 (human LPA1 [1]; Table B2, read-out: IC50) [µM] | IC50 (human LPA1 [2]; [3]) [µM] | IC50 (human LPA1 [2]; [4]) [µM] | IC50 (human LPA1 [1]; [5]) [µM] | SMILES
16 | 0.00794 | 0.00331 | < 0.1 |  | CCOc1cccc(-c2ccc(NC3(C(=O)O)CCOCC3)cc2COC2CC2)c1Cl [Compound 295, 4-((2′-chloro-2-(cyclopropoxymethyl)-3′-ethoxy-[1,1′-biphenyl]-4-yl)amino)tetrahydro-2H-pyran-4-carboxylic acid]
17 | 0.0109 | 0.0115 | < 0.1 |  | COc1cc(-c2ccc(NC3(C(=O)O)CCOCC3)cc2COC2CCCC2)c(C(F)F)c(OC)n1 [Compound 283]
18 | 0.00753 | 0.00302 | < 0.1 |  | CCOc1cccc(-c2ccc(NC3(C(=O)O)CCOCC3)cc2COC2CC2)c1C [Compound 355, 4-((2-(cyclopropoxymethyl)-3′-ethoxy-2′-methyl-[1,1′-biphenyl]-4-yl)amino)tetrahydro-2H-pyran-4-carboxylic acid]
19 | 0.00264 | 0.000763 | < 0.1 |  | CCOc1cc(OC)cc(-c2ccc(NC3(C(=O)O)CCOCC3)cc2CCC2CC2)c1F [Compound 298]
20 | 0.0103 | 0.0165 | < 0.1 |  | COc1cc(-c2ccc(NC3(C(=O)O)CCOCC3)cc2COC2CC2)c(F)c(OC)c1C [Compound 256, 4-((2-(cyclopropoxymethyl)-2′-fluoro-3′,5′-dimethoxy-4′-methyl-[1,1′-biphenyl]-4-yl)amino)tetrahydro-2H-pyran-4-carboxylic acid]
21 | 0.00715 | 0.00585 | < 0.1 |  | Cc1c(OC2CC2)cccc1-c1ccc(NC2(C(=O)O)CCOCC2)cc1COC1CC1 [Compound 294, 4-((3′-cyclopropoxy-2-(cyclopropoxymethyl)-2′-methyl-[1,1′-biphenyl]-4-yl)amino)tetrahydro-2H-pyran-4-carboxylic acid]
22 | 0.00397 | 0.0119 | < 0.1 |  | CCCOc1cccc(-c2ccc(NC3(C(=O)O)CCOCC3)cc2COC2CCCC2)c1F [Compound 284]
23 |  | 0.139 | 0.1 to 1 |  | COc1cc(-c2ccc(OC3(C(=O)O)CCOCC3)cc2COC2CCCC2)c(Cl)c(OC)n1 [Compound 230]
24 |  | 0.00841 | < 0.1 |  | COc1cc(OC)c(Cl)c(-c2ccc(NC3(C(=O)O)CCOCC3)cc2COC2CCCC2)c1 [Compound 257]
25 |  | 0.00463 | < 0.1 |  | COc1cc(-c2ccc(NC3(C(=O)O)CCOCC3)cc2COCCC(C)C)c(F)c(OC)c1C [Compound 351]
26 |  | 0.013 | < 0.1 |  | CCCCOCc1cc(NC2(C(=O)O)CCOCC2)ccc1-c1cncc(OCC)c1C(F)F [Compound 404]
27 | 0.00662 | 0.0139 | < 0.1 |  | Cc1c(OC2CC2)cccc1-c1ccc(NC2(C(=O)O)CCOCC2)cc1COC1CCCC1 [Compound 285]
28 | 0.0186 | 0.00812 | < 0.1 |  | CCOc1c(C)ccc(-c2ccc(NC3(C(=O)O)CCOCC3)cc2COC2CCCC2)c1C [Compound 280]
29 |  | 0.0103 | < 0.1 |  | CCOc1cccc(-c2ccc(NC3(C(=O)O)CCC3)cc2COC2CC2)c1C(F)F [Compound 333]
30 |  | 0.0188 | < 0.1 |  | COc1cc(-c2ccc(NC3(C(=O)O)CCOCC3)cc2COCC(C)C)c(F)c(OC)c1C [Compound 336]
31 |  | 0.00246 | < 0.1 |  | CCOc1cc(OC)cc(-c2ccc(NC3(C(=O)O)CCOCC3)cc2COC2CCCC2)c1F [Compound 287]
32 |  | 0.0596 | < 0.1 |  | O=C(O)C1(Nc2ccc(-c3cccc(OC4CC4)c3C(F)F)c(COC3CC3)c2)CC1 [Compound 325]
33 |  | > 10 | > 1 |  | CCCc1nccc(-c2ccc(NC3(C(=O)O)CCOCC3)cc2COC2CC2)c1F [Compound 393]
